Measured values published in patent publication US20120201908A1, “METHOD OF TREATING BIPOLAR DISORDER OR DEPRESSION USING AN ANTIESTROGEN” (Lunera Equities, LLLP, priority 2009, published 2012).
“Also recorded” adds a separate entry of the source. Structures can show the parent of a compound that is named as a salt. Where two headings read alike, the source gives them in different places.

How the values were obtained:
[1] = test system: symptoms of bipolar disorder; test: Pilot study Subject E: tamoxifen citrate added to bipolar medication, mood charts and psychiatrist visits; type: in vivo, human
Description: Subject E is a person and an insulin dependent diabetic. Subject E was diagnosed with bipolar disorder at […]. They have had surgery in the past for their knees, their neck and stitches for their head. Subject E has been institutionalized multiple times within the last nine years for their own protection. To date, no medications have seemed to help. Subject also has a history of alcoholism. Some complexity was expected in treatment due to diabetes.

[2] = test system: symptoms of bipolar disorder (bipolar I); test: Pilot study Subject D: tamoxifen citrate added to bipolar medication, mood charts and psychiatrist visits; type: in vivo, human
Description: Subject D is a person with a family history of bipolar disorder. Although Subject D had symptoms spanning Asperger's Syndrome, Bipolar I, Obsessive-Compulsive Disorder, Oppositional Defiant Disorder and anti-social traits, bipolar I was the diagnosis for several reasons, including the fact that it was present on both sides of the family and the symptoms were better suited to a bipolar diagnosis.
First visit: Day 1. Due to Subject D's extreme condition, past hospitalizations and the complicated mixture of medications, the psychiatrist spent approximately one hour with the subject. […] Subject D was also given a copy of the Gary Sach's Mood Chart for the subject and their parent to be filled out daily for the psychiatrist's weekly review.

[3] = test system: symptoms of bipolar disorder (bipolar disorder II); test: Case report Subject B: antiestrogen to treat symptoms of bipolar disorder; type: in vivo, human
Experimental: Subject B is a person in good general physical health with a family history of bipolar disorder. Subject B underwent Cholecystectomy. Subject B was diagnosed with Meniere's Syndrome. Subject B was diagnosed with bipolar disorder II, at which time Lamictal was prescribed by a psychiatrist. […] The psychiatrist then prescribed Effexor XR® (venlafaxine hydrochloride) 75 mg/daily. […] A general physician prescribed 1.5 mg/Klonopin® (Clonazepam) daily.
Subject B also remained mentally alert and stable. […] Currently, Subject B remains stable and emotionally level.
Subject B's spouse states that Subject B is much more level, enjoys their life to a new degree, no longer loses control or becomes violent without warning. The entire family feels that life is much easier since Subject B began taking the antiestrogen.

[4] = test system: symptoms of acute/severe depression; test: Case report Subject C: antiestrogen in descending daily dosing to treat acute/severe depression; type: in vivo, human; details: for time to lessening of symptoms of depression after the first dose: single dose on day one: tamoxifen citrate 20 mg or Arimidex 1 mg; for symptoms of depression after the descending dose course: tamoxifen citrate 20/10/5/2.5/2.5 mg days 1-5, Arimidex 1/0.5/0.25/0.25 mg days 1-4
Description: Subject C is a person in good general physical health with no previous history of mental illness or depression. Subject C was prescribed Dapsone as a child in order to treat to treat dermititis herpetiformis. Subject C received no medication in the past four years. In December 2008, Subject C became lethargic, uninterested in usually pleasurable activities, restless, and began oversleeping. After a full month, symptoms of depression became extreme and subject C was thought to be in danger of becoming suicidal.
Subject C's last dose was 2.5 mg on the fifth day.
Suicidal thoughts returned and Subject C considered dropping out of law school. Subject C started a descending dose course of Arimidex®; starting with a single dose of 1 mg on day one. Again, symptoms of depression faded noticeably within 8 hours, in a manner similar to that in response to treatment with tamoxifen. Subject C took single daily doses of Arimidex®; 0.5 mg on day two; 0.25 mg each on days three and four.

[5] = test system: symptoms of bipolar disorder (bipolar disorder I); test: Case report Subject A: antiestrogen to treat symptoms of bipolar disorder; details: for mood swings with the antiestrogen as only bipolar medication: tamoxifen citrate 20 mg base equivalents or Arimidex 1 mg, once every day or every other day; for effect of earlier medication on bipolar mood swings / side effects / reason for discontinuation of earlier medication: medication history before the antiestrogen
Experimental: (§1) The following list describes the drugs that were tried in combination with Eskalith: • 1. Depakote® (Divalproex Sodium Delayed Release Tablets) 50 mg daily. […] Tegretol XR® (Carbamazepine) 200 mg twice daily. […] Risperdal® (Risperidone) 3 mg per day. […] Prozac® (Olanzapine and Fluoxetine hydrochloride) 20 mg twice daily. […] Klonopin® (Clonazepam): originally from 2002 to 2009 was 8 mg to 10 mg daily for generalized anxiety. […] Lamictal® (Lamotrigine) Titration schedule over five weeks up to 250 mg twice daily.

[6] = test system: symptoms of bipolar disorder (bipolar disorder I); details: human, in vivo
Experimental: as §1

[7] = test system: protein kinase C alpha and epsilon isozymes; details: rat frontal cortex and hippocampus; Manji et al. 1999; cited from earlier work
[8] = in vivo; cited from earlier work
[9] = test system: symptoms of bipolar disorder; details: Subject F; for onset of noticed difference: tamoxifen citrate 20 mg qd
Description: In a preferred aspect, the patient fills out the mood chart on a regular basis and a family member, friend, roommate or clinical or institutional staff member who interacts with the patient on a regular basis, also records a parallel mood chart on a regular basis. […] In another aspect, a mood chart is started at the start of treatment with an antiestrogen.
Subject F is a person who experienced a coronary three years prior to starting the study that their doctors blamed on stimulants used for ADD. Subject F had stents placed following the coronary. […] They maintain a job where they can do much of the work from home. It has been over a year since they were so severe they could not get out of bed or work. They have not had any extreme episodes in the immediate past. Subject F is nearsighted and has high blood pressure.

[10] = test system: mania in patients with bipolar disorder; details: Yildiz et al. 2008; cited from earlier work

O=C1CCc2ccc(OCCCCN3CCN(c4cccc(Cl)c4Cl)CC3)cc2N1 [Abilify, Aripiprazole]
mood after self-discontinuing Abilify ([1]; Day 27, Abilify 5 mg qd not taken for 7 days): experienced some depression and mild anxiety and irritability | mood after resuming Abilify ([1]; Day 34, Abilify 5 mg qd): much better week

CC1=C(/C=C/C(C)=C/C=C/C(C)=C\C(=O)O)C(C)(C)CCC1 [Accutane]
depression under Accutane ([2]; Day 95, Accutane 30 mg qd with tamoxifen citrate 30 mg qd): still shows no signs of depression

Cc1ccc(-c2nc3ccc(C)cn3c2CC(=O)N(C)C)cc1 [Ambien]
sleep ([2]; Day 95, Ambien sample for trial): helped their sleeping

CC(C)(C#N)c1cc(Cn2cncn2)cc(C(C)(C)C#N)c1 [Arimidex, anastrozole]
response when Arimidex replaces tamoxifen citrate ([3]; Arimidex 0.25-1 mg used interchangeably with tamoxifen citrate 10 mg every other day): without change in response; also recorded: work equally as well | symptom-free period after the course [4]: After five months, Subject C remains free of symptoms of depression | time to lessening of symptoms of depression after the first dose [4]: ≤ 8 h | symptoms of depression after the descending dose course [4]: Symptoms of depression were substantially alleviated after day four | severity of bipolar episodes and symptoms ([5]; Arimidex 1 mg once a day, within a week of starting): episodes and symptoms became less severe | mood swings with the antiestrogen as only bipolar medication [5]: controls mood swings without the concurrent use of other bipolar medication; also recorded: mood swings became virtually non-existent | frequency of bipolar cycles ([5]; while taking Arimidex 1 mg once a day): cycles were less frequent

CCCC(CCC)C(=O)O [Depakote, Divalproex Sodium]
side effects / reason for discontinuation of earlier medication [6]: heavy side effects | protein kinase C alpha and epsilon isozymes [7]: reduction in protein kinase C alpha and epsilon isozymes

COc1ccc(C(CN(C)C)C2(O)CCCCC2)cc1 (stereo not shown) [Effexor XR, venlafaxine hydrochloride]
side effects / reason for discontinuation of earlier medication ([3]; Lamictal 10-12 weeks, Effexor XR 75 mg/daily for three days): lack of sleep, extreme mania, high anxiety and hyperactivity

O=C([O-])[O-].[Li+].[Li+] [Eskalith, Lithium Carbonate]
effect of earlier medication on bipolar mood swings [5]: slowed the swings, but did not change the severity of either the depressive or manic episodes | side effects / reason for discontinuation of earlier medication [5]: damage to the thyroid | protein kinase C alpha and epsilon isozymes [7]: reduction in protein kinase C alpha and epsilon isozymes

CN(C)CCCN1c2ccccc2CCc2ccccc21 [Imipramine hydrochloride]
side effects / reason for discontinuation of earlier medication [6]: extreme hand tremors | effect of earlier medication on bipolar mood swings [5]: continued to have bipolar swings

Nc1nnc(-c2cccc(Cl)c2Cl)c(N)n1 [Lamictal, Lamotrigine]
side effects / reason for discontinuation of earlier medication [6]: worsening skin condition; aggravated linear IgA dermatosis | patients who develop a rash [8]: 5-10% | effect of earlier medication on bipolar mood swings [5]: Mood swings were more frequent without Lamictal

CCCCCCCCCC(=O)O[C@H]1CC[C@H]2[C@@H]3CCC4=CC(=O)CC[C@@H]4[C@H]3CC[C@]12C [Nandrolone deconate]
side effects / reason for discontinuation of earlier medication [5]: Erythrocytosis

C[C@]12C=CC(=O)C=C1CC[C@@H]1[C@@H]2C(=O)C[C@@]2(C)[C@H]1CC[C@]2(O)C(=O)CO [Prednisone]
side effects / reason for discontinuation of earlier medication [6]: made all physical and mental conditions worse

Cc1nc2n(c(=O)c1CCN1CCC(c3noc4cc(F)ccc34)CC1)CCCC2 [Risperdal, Risperidone]
side effects / reason for discontinuation of earlier medication [6]: inability to work or function to a satisfactory level

OCCOCCN1CCN(C2=Nc3ccccc3Sc3ccccc32)CC1 [Seroquel, quetiapine fumarate]
side effects / reason for discontinuation of earlier medication [6]: extreme tiredness and inability to function

CC/C(=C(\c1ccccc1)c1ccc(OCCN(C)C)cc1)c1ccccc1.O=C(O)CC(O)(CC(=O)O)C(=O)O [Tamoxifen citrate, (Z)2-[4-(1,2-diphenyl-1-butenyl)phenoxy]-N,N-dimethylethanamine 2-hydroxy-1,2,3-propanetricarboxylate (1:1)]
time remained stable since beginning treatment [3]: approximately 18 months | bipolar symptoms ([3]; tamoxifen citrate 10 mg or 20 mg base equivalents taken regularly as only mood-stabilizing medication): no longer has bipolar symptoms | mood stability ([3]; tamoxifen citrate 20 mg base equivalents daily for two weeks): increased mood stability and overall feeling of well being | symptom-free period after the course [4]: three months with no symptoms of depression | time to lessening of symptoms of depression after the first dose [4]: within the first eight hours | symptoms of depression after the descending dose course [4]: Symptoms of depression were alleviated | anger ([9]; Day 13, tamoxifen citrate 20 mg qd, Strattera not taken): felt less angry even without taking the Strattera | subject's report to study coordinator ([9]; Day 52, Lamictal lowered to 100 mg qd): noticing the ability to sense their moods better | mood after a forgotten dose ([9]; Day 70, dose forgotten the day before): felt more depressed than any day since they started the program | out of control spending ([9]; Day 77): they have not had this problem since they went on the Tamoxifen | outbursts ([9]; Day 84): one outburst with their spouse, the first since starting Tamoxifen | onset of noticed difference ([9]; listed as Tamoxifen): positive difference around four days after starting | onset of noticed difference ([9]; listed as tamoxifen citrate): noticed a difference within three or four days | moods, spending, anger (synopsis) ([9]; to Day 98, since starting Tamoxifen Citrate): their moods have been level, their normally “out of control spending” was no longer a problem and their anger and problems with spouse have all but vanished | reduction of concurrent bipolar medication ([9]; to Day 98, tamoxifen 20 mg daily): Lamictal was able to be discontinued, and Strattera was able to remain discontinued with mood stabilization | mood swings with the antiestrogen as only bipolar medication [5]: controls mood swings without the concurrent use of other bipolar medication | mood swings with the antiestrogen as only bipolar medication ([5]; listed as tamoxifen citrate): mood swings became virtually non-existent | mood and energy as told to the psychiatrist ([2]; Day 9, tamoxifen citrate 20 mg qd): happier than they have been in a long time and has more energy | onset of feeling more balanced ([2]; tamoxifen citrate 20 mg qd added to Lithium ER, Depakote ER, Risperidone, Geodon): began feeling more balanced after only four days | reduction of concurrent bipolar medication ([2]; to Day 153, tamoxifen 20-30 mg daily): the doses of Depakote ER, Risperidone and Geodon were each able to be significantly reduced and Lithium was able to be discontinued | treatment of mania [10]: effective in treatment of mania in patients with bipolar disorder | response to treatment ([1]; Day 34, tamoxifen citrate 20 mg qd, other drugs cut in dose, listed as tamoxifen): responded well | reduction of concurrent bipolar medication ([1]; to Day 148, tamoxifen 20 mg daily): Topamax and Fluoxetine were able to be discontinued, and the dose of Abilify was significantly reduced

NC(=O)N1c2ccccc2C=Cc2ccccc21 [Tegretol XR, Carbamazepine]
side effects / reason for discontinuation of earlier medication [6]: hand and body tremors, as well as slurring of speech and numb feeling tongue | effect of earlier medication on bipolar mood swings [5]: Worked for a few weeks

CC(NC(C)(C)C)C(=O)c1cccc(Cl)c1 (stereo not shown) [Wellbutrin, bupropion hydrochloride]
side effects / reason for discontinuation of earlier medication [6]: dulled their mind and slowed their thinking
